Patent US20160310454A1, “LIVER X RECEPTOR AGONISTS IN THE TREATMENT OF EMPHYSEMA” (priority 2013, published 2016)
“Also recorded” adds a separate entry of the source.

Columns and labels:
[1] = test system: macrophage specific ABCA1 KO (ABCA1 Cre-LysM) macrophages treated with 5% CSE; assay: ABCA1 KO (ABCA1 Cre-LysM) mouse macrophages treated with 5% CSE with or without LXR agonist; type: cell-based
Method: FIG. 14. Effect of LXR dependent ABCA1 reexpression on cigarette smoke induced pro-inflammatory and MMP signaling pathways in macrophages. (A.) Western Blot analysis of JNK phosphorylation (oxidative stress activated MAP kinase), (B.) mRNA expression analysis of TLR4/Myd88 in mouse macrophages treated with 5% CSE with or without LXR agonist (T0901317-Cayman) in 3 μM concentration. (C-E.) mRNA expression analysis of inflammatory cytokines TNFα (C.), IL-1β (D.) and IL-10 (E.) mouse macrophages isolated from bone marrow of WT (ABCA1 fl/fl mice) and macrophage specific ABCA1 KO (ABCA1 Cre-LysM) treated with 5% CSE with or without LXR agonist (T0901317-Cayman) in 3 μM concentration. (F-H.) Analysis of MMP activation mouse macrophages isolated from bone marrow of WT (ABCA1 fl/fl mice) and macrophage specific ABCA1 KO (ABCA1 Cre-LysM) treated with 5% CSE with or without LXR agonist (T0901317-Cayman) in 3 μM concentration. MMP-9 and -13 mRNA expression (F.), MMP-9 mRNA expression with LXR agonist treatment, (H.) MMP-9 activity assayed by gelatin zymography. β-Actin was used as a housekeeping gene control for RT-PCR. Values are presented as statistically significant when *p<0.05, **p<0.01, ***p<0.001 when compared to controls and #p<0.05 compared to 5% CSE.
In these experiments both mouse peritoneal and mouse bone marrow derived macrophages (BMdM) were utilized. Mouse peritoneal macrophages were isolated from peritoneal cavities of 3% thioglycolate injected mice on the 5th day from injection. To compare expression of genes in vitro and in vivo peritoneal macrophages were isolated from mice exposed to room air and cigarette smoke. For in vitro analysis cells were seeded on culture plates for 24 h and then treated with CSE. For in vivo analysis cells were collected from peritoneal cavity and mRNA was directly isolated. […] The obtained cells were then counted (usually 100-150 million cells per mouse) and centrifuged for 5 min at 2600 rpm. […] Approximately after 7-10 days of plating the cells become fully differentiated into macrophages and were ready for subsequent experiments. […]

[2] = test system: mice exposed to cigarette smoke for 10 days; assay: Acute 10 day cigarette smoke exposure model with LXR agonist IP; type: in vivo, mouse
Method: Mice were chronically exposed to smoke in a specially designed chamber (Teague Enterprise, CA). 8 weeks old mice were smoke-exposed for 5 hours a day, 5 days a week for 10 days and 5 months. The total particulate matter (TPM) within the smoking chamber was regulated so that the mice receive a TPM of 100 mg/m^3. TPM was determined by a gravimetric analysis of filter samples taken during the exposure period. Mice (C57BL/6, AKR/J strain) were smoke exposed for 10 days and 5 months and compared to room air exposed controls.
The BAL fluid was collected by perfusing the lungs with 2 ml of phosphate buffered saline (PBS). The samples were then centrifuged to pellet down the cells and re-suspended in 300 μl of PBS. To obtain the total cell count, cells were counted using a hematocytometer for which, 10 μl of the sample was utilized. To obtain the differential cell count, the slides were prepared using a cytopsin. 150 μl of sample was taken to prepare slides. These slides were stained using Hematoxylin and Eosin (H&E) and a number of regular and foamy like macrophages and lymphocytes counted under the microscope. A foamy like phenotype (Hirama et al., 2007) was identified by examining the sequential increase in macrophage size. Lipid staining was not performed.
Total RNA was extracted from specimens of lung tissue 0.3 cm^3 in size with the use of the RNeasy kit (Qiagen, Germantown, Md.) (Goldklang et al., 2012). The RNA was then further processed to obtain cDNA, which was used for Real Time (RT) PCR analysis. TaqMan gene expression assays (Applied Biosystems, Carlsbad, Calif.) were performed to assess gene-transcript levels with the use of an ABI Prism 7900HT Sequence Detection System (Applera, Foster City, Calif.) (Goldklang et al., 2012). The following primers were used to check the respective gene expression: ABCA1 (Hs01059118_m1), ABCG1 (Hs00245154_m1), MMP-9 (Mm00442991_m1), IL-1β (Mm00434227_g1), TNF-α (Mm00443260_g1) and GAPDH (4352932E) from TaqMan Gene Expression Assays, Applied Biosystems, CA. β-actin was used as a control since it is a housekeeping gene.
To determine if the mechanisms identified in vitro contributed to changes in smoke induced lung inflammation in vivo, cigarette smoke studies were performed in mice. The treatment of mice exposed to cigarette smoke in an acute 10 day model with 25 mg/kg of intraperitoneal (IP) injections of an LXR agonist daily during the last 4 days of exposure was examined. […] Treatment with the LXR agonist was capable of blocking the already established inflammation and decreased the total inflammatory cell counts (FIG. 15A.). Furthermore, the cigarette smoke induced TNFα protein expression in the BAL was abrogated in mice treated with the LXR agonist (FIG. 15B.). […] Most importantly, cigarette smoke induced MMP-9 expression and activity in the BAL were inhibited by the treatment with the LXR agonist (FIG. 15C-D.), which correlated with inhibition of inflammation and the inflammatory driven increase in TNFα.

[3] = 25 mg/kg IP, 10 days smoke exposure, Luminex
[4] = 25 mg/kg IP, 10 days smoke exposure, listed as LXR agonist

## O=S(=O)(c1ccccc1)N(CC(F)(F)F)c1ccc(C(O)(C(F)(F)F)C(F)(F)F)cc1 [T0901317, N-(2,2,2-trifluoroethyl)-N-[4-[2,2,2-trifluoro-1-hydroxy-1-(trifluoromethyl)ethyl]phenyl]-benzenesulfonamide]
[1]; ABCA1 KO macrophages
  decrease in MMP-9 activity and expression, MMP-13 expression and TNFα expression: not observed
[1]; ABCA1 macrophage knockout, LXR agonist 3 μM
  reversal of induction of cytokines by 5% CSE: not able to reverse
[1]; WT versus ABCA1 KO macrophages, 5% CSE, LXR agonist 3 μM
  reduction of mRNA and activity of MMP-9: dependence on ABCA1: only in the presence of the ABCA1 transporter
[2]; 25 mg/kg IP daily, last 4 days of 10 day smoke exposure, listed as LXR agonist
  level of ABCA1 in BAL (alveolar macrophages): re-expression; also recorded: successfully increased
[2]; 25 mg/kg IP, 10 days smoke exposure
  pulmonary inflammation: total inflammatory cell counts in BAL: resolve
[2]; [3]
  cigarette smoke induced TNFα protein expression in the BAL: abrogated
  smoke induced increase in IL-1β, IL-17, IFNγ and MCP-1 in the lung tissue: inhibited
[2]; [4]
  cigarette smoke induced MMP-9 expression and activity in the BAL: inhibition; also recorded: inhibited
  mRNA levels of TNFα in BAL alveolar macrophages: inhibition; also recorded: decreased
  pulmonary inflammation: total inflammatory cell counts in BAL: significantly blocked; also recorded: decreased
